Source: ChEMBL document CHEMBL1201862, “PubChem BioAssay data set” (2004)
Calls of active or inactive are those of the source. Cut-off read from the data, not from the text of the source, for most assays here: actives have a measured EC50 and inactives only a lower limit.

system: H4; assay: Luminescence Cell-Based Dose Response HTS to Identify Activators of 5'UTR Stem-Loop Driven Prion Protein mRNA Translation in H4 Neuroglioblastoma Cells. [Related pubchem assays: 1829 (Project Summary), 1814 (Primary HTS)]; assay type: functional; settings: Homo sapiens

SMILES | EC50
COc1ccc(/N=C/C=C2\C=C(c3ccccc3)OC(C)(C)O2)cc1 | > 120 µM (not active)
CCCCC/N=C(/C)c1c(O)oc2ccccc2c1=O | 9.36 µM (active)

molecular target: T1, Ubiquitin-conjugating enzyme E2 N (Homo sapiens, UniProt P61088); assay: not given; assay type: functional; settings: not given;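 note: Dose-response confirmation in a TR-FRET assay detecting UBC13-driven polyubiquitin chain formation, inhibition measured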
T1 sequence (P61088 whole entry): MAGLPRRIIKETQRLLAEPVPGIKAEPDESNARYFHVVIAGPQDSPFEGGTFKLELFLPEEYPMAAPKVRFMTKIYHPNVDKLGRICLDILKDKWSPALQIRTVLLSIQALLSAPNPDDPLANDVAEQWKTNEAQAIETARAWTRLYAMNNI

SMILES | IC50
COc1ccc2sc(N(CCCN(C)C)C(=O)c3ccc(S(=O)(=O)N(C)Cc4ccccc4)cc3)nc2c1 | > 20 µM (inactive)
COc1ccc(C(CCN2CCCC(C)C2)c2c(OC)cc(OC)c3c(-c4ccccc4)cc(=O)oc23)cc1 (configuration not stated) | > 20 µM (inactive)
COc1cccc(CNc2nc(-c3cccnc3)nc3ccccc23)c1 | > 20 µM (inactive)
CC(C)N1CCc2c(sc(NC(=O)c3ccc(S(=O)(=O)N4CCc5ccccc54)cc3)c2C(N)=O)C1 | > 20 µM (inactive)
CNCC(O)c1cc(F)c(OCc2ccccc2)c(OCc2ccccc2)c1F (configuration not stated) | > 20 µM (inactive)

system: not listed separately; assay: cytotoxicity toward NIH3T3 fibroblasts, dose response, counter-screen, cell-based, ATP luminescence, mouse fibroblasts (AID 2010); assay type: functional; settings: not given;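 note: cells exposed to compound for about 90 hours before reading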

SMILES | EC50
COc1ccc2sc(N(CCCN(C)C)C(=O)c3ccc(S(=O)(=O)N(C)Cc4ccccc4)cc3)nc2c1 | > 60 µM (not active)
Cc1ccc(NC2CCCN(C(=O)CCc3ccncc3)C2)cc1C (configuration not stated) | > 60 µM (not active)

system: not listed separately; assay: inhibitors of intracellular T. cruzi replication, confirmation, NIH3T3 host cells, beta-gal luminescence (AID 2044); assay type: functional, cell-based; settings: not given;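 note: intracellular parasites grown in NIH/3T3 mouse fibroblasts as host cells; luminescent beta-galactosidase reporter signal from transgenic T. cruzi replicating inside host cells; inhibitors lower the luminescence signal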

SMILES | EC50
COc1ccc2sc(N(CCCN(C)C)C(=O)c3ccc(S(=O)(=O)N(C)Cc4ccccc4)cc3)nc2c1 | 0.185 µM (active)
Cc1ccc(NC2CCCN(C(=O)CCc3ccncc3)C2)cc1C (configuration not stated) | 1.15 µM (active)

molecular target: T2, Corticotropin-releasing factor receptor 2/Corticotropin-releasing factor-binding protein (Homo sapiens, UniProt P24387+Q13324); assay: Dose Response confirmation of uHTS hits for small molecule antagonists of the CRF-binding protein and CRF-R2 receptor complex.; assay type: functional; settings: read-out: IC50_Mean
T2 sequence (Q13324 whole entry): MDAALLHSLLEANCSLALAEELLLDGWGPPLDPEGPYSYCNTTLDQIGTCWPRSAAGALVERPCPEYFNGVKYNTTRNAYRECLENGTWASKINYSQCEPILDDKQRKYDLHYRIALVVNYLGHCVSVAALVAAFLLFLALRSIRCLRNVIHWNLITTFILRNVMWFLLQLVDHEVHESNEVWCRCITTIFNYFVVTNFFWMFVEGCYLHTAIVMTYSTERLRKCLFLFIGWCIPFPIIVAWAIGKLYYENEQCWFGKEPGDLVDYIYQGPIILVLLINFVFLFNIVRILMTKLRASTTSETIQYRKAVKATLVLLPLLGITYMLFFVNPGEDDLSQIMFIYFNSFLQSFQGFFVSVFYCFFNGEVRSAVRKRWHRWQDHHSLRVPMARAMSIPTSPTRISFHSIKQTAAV
T2 sequence (P24387 whole entry): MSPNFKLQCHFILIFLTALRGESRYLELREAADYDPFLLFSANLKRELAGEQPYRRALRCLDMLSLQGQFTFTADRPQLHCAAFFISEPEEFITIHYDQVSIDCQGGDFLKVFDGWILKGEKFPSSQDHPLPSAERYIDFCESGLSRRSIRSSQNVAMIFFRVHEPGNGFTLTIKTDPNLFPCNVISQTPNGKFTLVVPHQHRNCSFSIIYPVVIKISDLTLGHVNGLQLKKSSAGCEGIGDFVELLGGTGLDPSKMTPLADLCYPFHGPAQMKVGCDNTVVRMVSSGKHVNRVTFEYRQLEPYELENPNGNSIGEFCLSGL

SMILES | IC50
COc1cccc(CNc2nc(-c3cccnc3)nc3ccccc23)c1 | > 47.1 µM (inactive)

system: not listed separately; assay: Luminescence Cell-Based Dose Confirmation HTS to Identify Activators of 5'UTR Stem-Loop Driven Alpha-Synuclein mRNA Translation in H4 Neuroglioblastoma Cells. [Related pubchem assays: 1829 (Project Summary), 1814 (Primary HTS)]; assay type: functional; settings: not given

SMILES | EC50
COc1ccc(/N=C/C=C2\C=C(c3ccccc3)OC(C)(C)O2)cc1 | > 120 µM (not active)
CCCCC/N=C(/C)c1c(O)oc2ccccc2c1=O | > 120 µM (not active)

system: not listed separately; assay: Luminescence Cell-Based Dose Response HTS to Identify Activators of Luciferase Translation or Activity in H4 […] Cells. [Related pubchem assays: 1829 (Project Summary), 1814 (Primary HTS)]; assay type: functional; settings: not given

SMILES | EC50
COc1ccc(/N=C/C=C2\C=C(c3ccccc3)OC(C)(C)O2)cc1 | 10.2 µM (active)
CCCCC/N=C(/C)c1c(O)oc2ccccc2c1=O | 61.4 µM (active)

molecular target: T2, Corticotropin-releasing factor receptor 2/Corticotropin-releasing factor-binding protein; assay: activators of CRF receptor 2 with binding protein – uHTS hits, confirmation (AID 602473); assay type: functional; settings: read-out: EC50_Mean

SMILES | EC50
COc1cccc(CNc2nc(-c3cccnc3)nc3ccccc23)c1 | > 53 µM (inactive)

molecular target: Paired box protein Pax-8 (Homo sapiens, UniProt Q06710); assay: inhibitors of PAX8-driven TPO luciferase reporter, dose response, RMG-I cells, cherry-pick (AID 687027); assay type: functional, cell-based; settings: not given;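 note: luciferase reporter driven by Pax8 target thyroperoxidase promoter measured by SteadyGlo luminescence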
Sequence (Q06710 whole entry): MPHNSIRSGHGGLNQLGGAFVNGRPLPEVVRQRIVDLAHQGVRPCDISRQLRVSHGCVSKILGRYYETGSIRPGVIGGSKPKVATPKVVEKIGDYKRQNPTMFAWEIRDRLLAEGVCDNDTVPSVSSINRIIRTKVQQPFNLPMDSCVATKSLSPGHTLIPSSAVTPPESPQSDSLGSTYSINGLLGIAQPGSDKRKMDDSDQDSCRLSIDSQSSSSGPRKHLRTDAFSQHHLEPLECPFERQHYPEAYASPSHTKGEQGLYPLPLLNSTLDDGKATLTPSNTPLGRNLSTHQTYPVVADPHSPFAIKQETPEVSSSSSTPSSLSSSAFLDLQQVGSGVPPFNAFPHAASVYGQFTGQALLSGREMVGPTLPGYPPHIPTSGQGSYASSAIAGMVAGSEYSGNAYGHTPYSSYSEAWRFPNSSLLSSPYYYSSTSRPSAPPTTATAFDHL

SMILES | AC50
C[C@@H]1CCCCO[C@@H](CN(C)Cc2ccc(C(F)(F)F)cc2)[C@H](C)CN([C@@H](C)CO)C(=O)c2cc(NS(=O)(=O)c3ccccc3)ccc2O1 | 4.66 µM (active)

system: not listed separately; assay: cells; assay type: functional, cell-based; settings: not given

SMILES | EC50
Cc1cc(NC(=O)CCN2C(=O)/C(=C\c3ccccc3)SC2=S)no1 | > 350 µM (not active)
CCOC(=O)c1cc2c(ccn2C)n1CC(=O)N1CCN(c2ccccc2)CC1 | > 350 µM (not active)
O=C(NCCCN1CCOCC1)c1cc(-c2cccs2)on1 | > 350 µM (not active)
C=C(C)Cn1c(CCNC(=O)C(C)C)nc2ccccc21 | > 350 µM (not active)
CCCCc1c(C)nc(N)nc1O | > 350 µM (not active)
O=C(CCN1CCN(c2ccccc2)CC1)N/N=C/c1ccccc1O | > 350 µM (not active)

molecular target: FAD-linked sulfhydryl oxidase ALR (Homo sapiens, UniProt P55789); assay: inhibitors of human ALR sulfhydryl oxidase, dose response, biochemical, H2O2 detection, luminescence, cherry-pick (AID 493248); settings: not given
Sequence (P55789 whole entry): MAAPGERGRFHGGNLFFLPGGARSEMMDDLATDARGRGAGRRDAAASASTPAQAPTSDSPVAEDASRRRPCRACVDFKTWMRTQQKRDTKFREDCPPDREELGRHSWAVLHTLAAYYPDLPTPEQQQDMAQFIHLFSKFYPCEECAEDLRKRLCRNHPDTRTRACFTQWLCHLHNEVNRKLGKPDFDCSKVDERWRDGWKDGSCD

SMILES | AC50
CCn1c(S)nnc1CCn1c2ccccc2c2ccccc21 | > 100 µM (inactive)
Cc1ccc(NC2CCCN(C(=O)CCc3ccncc3)C2)cc1C (configuration not stated) | 2.7 µM (active)
COc1cccc(N2CCN(CC(=O)NCc3ccccc3)CC2)c1 | 1.97 µM (active)
CCN(CC)c1ccc(CNCc2cccs2)cc1 | 0.742 µM (active)
O=C(NCN1CCN(c2ccccc2)CC1)c1cnccn1 | 4.03 µM (active)
O=C(N/N=C\c1cccc(Cl)c1)c1ccc(Cn2cccn2)o1 | 0.641 µM (active)
C/C(=N\NC(=O)c1ccncc1)c1ccc(N(C)C)cc1 | 5.01 µM (active)

system: not listed separately; assay: cells; assay type: functional, cell-based; settings: not given; remark: another data set of the same source

SMILES | EC50
Cc1cc(NC(=O)CCN2C(=O)/C(=C\c3ccccc3)SC2=S)no1 | > 350 µM (not active)
CCOC(=O)c1cc2c(ccn2C)n1CC(=O)N1CCN(c2ccccc2)CC1 | > 350 µM (not active)
O=C(NCCCN1CCOCC1)c1cc(-c2cccs2)on1 | 77 µM (active)
C=C(C)Cn1c(CCNC(=O)C(C)C)nc2ccccc21 | > 350 µM (not active)
CCCCc1c(C)nc(N)nc1O | > 350 µM (not active)
O=C(CCN1CCN(c2ccccc2)CC1)N/N=C/c1ccccc1O | 91.8 µM (active)
